This is an account of results in ChEMBL document CHEMBL1155968, “Synthesis, anticonvulsant and CNS depressant activity of some new bioactive 1-(4-substituted-phenyl)-3-(4-oxo-2-phenyl/ethyl-4H-quinazolin-3-yl)-urea” (Eur J Med Chem, 2009).

What is called inhibition in vivo is the percentage by which the read-out fell short of the control.

Calls of active or inactive are those of the source. The rule behind the calls is not given here.

Data set [1] concerns Mus musculus. Briefly: Anticonvulsant activity in ip dosed albino mouse assessed as inhibition of maximal electric shock-induced seizures after 0.5 hrs. The class given is functional.
For data set [2], the system named is Mus musculus. Briefly: Anticonvulsant activity in ip dosed albino mouse assessed as inhibition of maximal electric shock-induced seizures after 4 hrs. Type of data set: functional.
The test system of data set [3] is Mus musculus. Briefly: Anticonvulsant activity in ip dosed albino mouse assessed as inhibition of subcutaneous pentylenetetrazole-induced seizure after 0.5 hrs. Type of data set: functional.
Data set [4] deals with Mus musculus. Briefly: Neurotoxicity in ip dosed albino mouse assessed as minimal motor impairment after 0.5 hrs by rotarod test. Type of data set: toxicity, organism-based. Conditions: in vivo. A general note: In the rotarod test animals must keep their balance on a rotating rod.
The subject of data set [5] is Mus musculus. Briefly: Neurotoxicity in ip dosed albino mouse assessed as minimal motor impairment after 4 hrs by rotarod test. Type of data set: toxicity, organism-based. Conditions: in vivo.
For data set [6], the system named is Rattus norvegicus. Briefly: Antidepressant activity against Wistar rat assessed as increase in immobility time at 30 mg/kg, ip after 60 mins by forced swim pool method. The class given is functional. Conditions: route intraperitoneal.
Data set [7] deals with Mus musculus. Briefly: Anticonvulsant activity in ip dosed albino mouse assessed as inhibition of subcutaneous pentylenetetrazole-induced seizure after 4 hrs. Type of data set: functional.
For data set [8], the system named is Mus musculus. Briefly: Behavioral activity in albino mouse assessed as decrease in locomotor activity at 100 mg/kg, ip by actophotometer. Type of data set: functional. Conditions: route intraperitoneal.
Data set [9] has as its system Rattus norvegicus. Briefly: Antidepressant activity in Wistar rat assessed as increase in immobility time at 100 mg/kg, ip after 60 min by forced swim pool method. The class given is functional. Conditions: route intraperitoneal.

With `NC(=O)N1c2ccccc2C=Cc2ccccc21` [CARBAMAZEPINE], the outcome in [1], in [2] and in data set [7] was inactive. In addition, the figures for the Activity in [3], in data set [4] and in data set [5] were 300 mg/kg, “Not Active” and “Not Active”, respectively. Also, the Time in data set [6] is on record as 168.32 s.

With `O=C(Nc1ccc(Cl)cc1)Nn1c(-c2ccccc2)nc2ccccc2c1=O`, the Activity is 300 mg/kg in [1], 300 mg/kg in data set [3], 300 mg/kg in data set [4] and “Not Active” in [5]. Further, the outcome in [2] and in [7] was inactive. The inhibition in vivo at 100 mg/kg in data set [8] is 55%. Besides, the Time in data set [9] stood at 218.5 s.

Turning to `CCOc1ccc(NC(=O)Nn2c(-c3ccccc3)nc3ccccc3c2=O)cc1`, the outcome in data set [1], in data set [2], in [3] and in data set [7] was inactive. Further, the values for the Activity in [4] and in data set [5] were 100 mg/kg and “Not Active”, respectively. Further, the inhibition in vivo at 100 mg/kg in [8] stood at 53%. Besides, in data set [9], the Time is given as 273.22 s.

Turning to `O=C(Nc1ccccc1)Nn1c(-c2ccccc2)nc2ccccc2c1=O`, the result in data set [1], in data set [2], in data set [3] and in [7] was inactive. Also, the results for the Activity in data set [4] and in data set [5] were 300 mg/kg and “Not Active”, respectively. Besides, the inhibition in vivo at 100 mg/kg in data set [8] is 56%. Moreover, in [9], the Time worked out at 186.46 s.

For the compound `CCc1nc2ccccc2c(=O)n1NC(=O)Nc1cccc(C)c1`, the result in data set [1], in data set [2], in [3] and in [7] was inactive. The Activity result in [4] and in data set [5] was “Not Active” in each case. Moreover, in data set [8], the inhibition in vivo at 100 mg/kg stood at 53%. Moreover, the Time in data set [9] was determined as 165.63 s.
